Assay results: PubChem BioAssay (NCI)
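Five concentrations, 48 hours, 96-well plates. GI50 is the concentration that inhibits growth by half. TGI is the concentration that stops growth completely.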

Columns and labels:
Test in all cases: NCI-60 cell line screen, 48 h
[1] = tested on: SN12C renal
[2] = tested on: SW-620 colon
[3] = tested on: HL-60(TB) leukemia
[4] = tested on: SNB-75 CNS
[5] = tested on: LOX IMVI melanoma
[6] = tested on: M14 melanoma
[7] = tested on: UACC-257 melanoma
[8] = tested on: SF-539 CNS
[9] = tested on: HCC-2998 colon
[10] = tested on: RPMI-8226 leukemia
[11] = tested on: IGROV1 ovarian
[12] = tested on: OVCAR-4 ovarian
[13] = tested on: BT-549 breast
[14] = tested on: UO-31 renal
[15] = tested on: CCRF-CEM leukemia
[16] = tested on: RXF 393 renal
[17] = tested on: NCI-H460 lung
[18] = tested on: NCI-H23 lung
[19] = tested on: KM12 colon
[20] = tested on: SNB-19 CNS
[21] = tested on: SF-268 CNS
[22] = tested on: OVCAR-5 ovarian
[23] = tested on: MDA-MB-231 breast
[24] = tested on: MDA-MB-435
[25] = tested on: A549 NSCLC
[26] = tested on: HT29 colon
[27] = tested on: NCI-H226 lung
[28] = tested on: COLO 205 colon
[29] = tested on: SF-295 CNS
[30] = tested on: OVCAR-8 ovarian
[31] = tested on: SK-MEL-5 melanoma
[32] = tested on: U251 CNS
[33] = tested on: TK-10 renal
[34] = tested on: MCF7 breast
[35] = tested on: ACHN renal
[36] = tested on: HOP-92 NSCLC
[37] = tested on: HCT-15 colon
[38] = tested on: CAKI-1 renal
[39] = tested on: UACC-62 melanoma
[40] = tested on: HCT-116 colon
[41] = tested on: NCI/ADR-RES ovarian
[42] = tested on: A498 renal
[43] = tested on: PC-3 prostate
[44] = tested on: HS 578T breast
[45] = tested on: SK-OV-3 ovarian
[46] = tested on: T-47D breast
[47] = tested on: SK-MEL-28 melanoma
[48] = tested on: HOP-62 NSCLC
[49] = tested on: EKVX NSCLC
[50] = tested on: SR leukemia
[51] = tested on: MOLT-4 leukemia
[52] = tested on: MALME-3M melanoma
[53] = tested on: K-562 leukemia
[54] = tested on: DU-145 prostate
[55] = tested on: NCI-H522 lung

CN(C)c1ccc(-c2cc(-c3c[nH]c4ccccc34)nc(N)c2C#N)cc1
GI50 [1]: 2.87 µM | TGI [1]: 10.8 µM | GI50 [2]: 2.16 µM | TGI [2]: 11.3 µM | GI50 [3]: 1.79 µM | TGI [3]: 6.03 µM | GI50 [4]: 1.84 µM | TGI [4]: 8.96 µM | GI50 [5]: 1.56 µM | TGI [5]: 3.58 µM | GI50 [6]: 1.7 µM | TGI [6]: 4.35 µM | GI50 [7]: 1.89 µM | TGI [7]: 4.74 µM | GI50 [8]: 1.33 µM | TGI [8]: 3.05 µM | GI50 [9]: 2.15 µM | TGI [9]: 10.5 µM | GI50 [10]: 1.95 µM | TGI [10]: 4.89 µM | GI50 [11]: 2.35 µM | TGI [11]: 17.6 µM | GI50 [12]: 4.78 µM | TGI [12]: 31.6 µM | GI50 [13]: 2.22 µM | TGI [13]: 7.31 µM | GI50 [14]: 1.88 µM | TGI [14]: 6.37 µM | GI50 [15]: 1.54 µM | TGI [15]: 36.4 µM | GI50 [16]: 1.3 µM | TGI [16]: 3.13 µM | GI50 [17]: 1.06 µM | TGI [17]: 3.5 µM | GI50 [18]: 3.13 µM | TGI [18]: 15.7 µM | GI50 [19]: 1.85 µM | TGI [19]: 8.72 µM | GI50 [20]: 2.96 µM | TGI [20]: > 100 µM | GI50 [21]: 3.89 µM | TGI [21]: 31.9 µM | GI50 [22]: 3.17 µM | TGI [22]: 19.1 µM | GI50 [23]: 2.16 µM | TGI [23]: 10.6 µM | GI50 [24]: 0.466 µM | TGI [24]: 10.1 µM | GI50 [25]: 1.92 µM | TGI [25]: 7.09 µM | GI50 [26]: 1.72 µM | TGI [26]: 6.43 µM | GI50 [27]: 4.23 µM | TGI [27]: 27 µM | GI50 [28]: 2.11 µM | TGI [28]: 6.03 µM | GI50 [29]: 1.86 µM | TGI [29]: 4.14 µM | GI50 [30]: 2.78 µM | TGI [30]: 10.7 µM | GI50 [31]: 1.84 µM | TGI [31]: 3.6 µM | GI50 [32]: 1.53 µM | TGI [32]: 4.21 µM | GI50 [33]: 4.1 µM | TGI [33]: 39.8 µM | GI50 [34]: 1.51 µM | TGI [34]: 10.4 µM | GI50 [35]: 2.79 µM | TGI [35]: 23.4 µM | GI50 [36]: 2.14 µM | TGI [36]: 5.12 µM | GI50 [37]: 0.485 µM | TGI [37]: 10.4 µM | GI50 [38]: 1.67 µM | TGI [38]: 7.21 µM | GI50 [39]: 2.05 µM | TGI [39]: 7.27 µM | GI50 [40]: 1.6 µM | TGI [40]: 4.45 µM | GI50 [41]: 1.82 µM | TGI [41]: > 100 µM | GI50 [42]: 1.78 µM | TGI [42]: 4.66 µM | GI50 [43]: 2.79 µM | TGI [43]: 15.6 µM | GI50 [44]: 2.08 µM | TGI [44]: 6.71 µM | GI50 [45]: 2.05 µM | TGI [45]: 4.88 µM | GI50 [46]: 2.32 µM | TGI [46]: 7.83 µM | GI50 [47]: 1.78 µM | TGI [47]: 4.6 µM | GI50 [48]: 1.83 µM | TGI [48]: 6.96 µM | GI50 [49]: 3.38 µM | TGI [49]: 27.2 µM | GI50 [50]: 0.419 µM | TGI [50]: 4.21 µM | GI50 [51]: 1.89 µM | TGI [51]: 14.1 µM | GI50 [52]: 1.72 µM | TGI [52]: 4.6 µM | GI50 [53]: 0.653 µM | TGI [53]: > 100 µM | GI50 [54]: 3.45 µM | TGI [54]: 21 µM | GI50 [55]: 0.446 µM | TGI [55]: 2.16 µM
